Experimental findings from US8816070B2, “Triazole derivative as an HSP 90 inhibitor” (Merck Patent GmbH, priority 2007, dated 2014) are described below.

Data set [1] deals with T1, Recombinant human HSP90α (Homo sapiens, UniProt P07900).
T1 construct: host or cells: E. coli
Description: HSP90 radioligand filter binding test ([3H]17AAG competition). From the text:
The binding of geldanamycin or 17-allylamino-17-demethoxygeldanamycin (17AAG) to HSP90 and competitive inhibition thereof can be utilised in order to determine the inhibitory activity of the compounds according to the invention (Carreras et al. 2003, Chiosis et al. 2002).
In the specific case, a radioligand filter binding test is used. The radioligand used here is tritium-labelled 17-allylaminogeldanamycin, [3H]17AAG. This filter binding test allows a targeted search for inhibitors which interfere with the ATP binding site.
Recombinant human HSP90α (E. coli expressed, 95% purity); [3H]17AAG (17-allylaminogeldanamycin, [allylamino-2,3-^3H. Specific activity: 1.11×10^12 Bq/mmol (Moravek, MT-1717);
HEPES filter buffer (50 mM HEPES, pH 7.0, 5 mM MgCl2, BSA 0.01%) Multiscreen FB (1 μm) filter plate (Millipore, MAFBNOB 50).
The 96-well microtitre filter plates are firstly irrigated and coated with 0.1% of polyethylenimine.
At the end of the reaction, the supernatant in the filter plate is removed by suction with the aid of a vacuum manifold (Multiscreen Separation System, Millipore), and the filter is washed twice.
The filter plates are then measured in a beta counter (Microbeta, Wallac) with scintillator (Microscint 20, Packard).
“% of control” is determined from the “counts per minutes” values and the IC50 value of a compound is calculated therefrom.

The nature of data set [2]: Relative stability of polymorphic forms of C1. Format: physicochemical. Conditions: form A1 versus form A2 of C1. An excerpt: Two polymorphic forms A1 and A2 of the compound “C1” according to the invention can be isolated.
Form A2 can be converted into A1, for example by stirring in solvents such as methanol, ethanol, acetone, DMF, acetic acid, formic acid, THF or isopropanol.

With `CCCCN(C)C(=O)c1cc(-c2n[nH]c(=O)n2-c2ccccc2C)c(O)cc1O` [Compound C1, 5-[4-(2-methylphenyl)-3-hydroxy-4H-1,2,4-triazol-5-yl]-2,4-dihydroxy-N-methyl-N-butylbenzamide], the “higher activity in HSP90 inhibition compared with "A47"” value in data set [1] (C1 versus A47 from the closest prior art) is “approximately 10 times”. For the same compound, the IC50 in data set [1] ([3H]17AAG 0.08 μM, 22° C., 30 min, read-out: HSP90 inhibition IC50) stood at 29 nM.

As to `CCCCN(C)C(=O)c1cc(-c2nnc(O)n2-c2ccccc2C)c(O)cc1O` [Form A1, 5-[4-(2-methylphenyl)-3-hydroxy-4H-1,2,4-triazol-5-yl]-2,4-dihydroxy-N-methyl-N-butylbenzamide], the “thermodynamic stability of polymorphic form” value in data set [2] is on record as “thermodynamically more stable form”.

As usually defined, the IC50 is the concentration needed to halve the response being measured.
